# Columns and labels:
# Assay type in all cases: in vivo, Wistar rats
# [1] = test system: calcium level in the serum; assay: Experiment 3: effects of various sucrose fatty acid esters on serum calcium reduction; conditions: for Reduction rate (%) of calcium level in the serum: intravaginal suppository, rats
# Experimental: (§1) An intravaginal suppository was administered into the rat's vagina, and the blood was collected periodically (2, 4 and 6 hours after administration of the test preparation).
# (§2) The serum was separated, and the calcium level in the serum was determined by using a kit for determination of calcium (Calcium C Test Wako; manufactured by Wako Pure Chemical Industries, Ltd.) (n=3).
# In the same manner, there were prepared various sucrose fatty acid esters having the same HLB value but being combined with a different fatty acid (Table B), and four kinds of intravaginal suppositories for rats were prepared by using each 100 mg of sucrose fatty acid ester.
# In the same manner as in Experiment 1, each intravaginal suppository was administered to the rat's vagina, and the blood was collected periodically 2, 4 and 6 hours after administration of intravaginal suppository), and the calcium level in the serum thereof was determined (n=4).
# [2] = test system: calcium level in the serum; assay: Experiment 4: effects of the concentration of sucrose fatty acid ester on serum calcium reduction
# Experimental: as §1, §2
# Human calcitonin (2 mg) was precisely measured, and thereto were added citric acid (100 mg) and Ryoto-Sugar Ester S-970 (50 mg, 100 mg or 400 mg), and the mixture was mixed well.
# In the same manner as in Experiment 1, each intravaginal suppository was administered to the rat's vagina, and the blood was collected periodically (2 and 4 hours after administration of intravaginal suppository), and the calcium level in the serum thereof was determined (n=3).
# [3] = test system: calcium level in the serum; assay: Experiment 6: effects of the concentration of organic acid on serum calcium reduction; conditions: for Reduction rate (%) of calcium level in the serum: pH 3.5, + S-970, intravaginal suppository 20 μg, rats
# Experimental: as §1, §2
# (§3) In the same manner as in Experiment 1, each intravaginal suppository was administered to the rat's vagina, and the blood was collected periodically (2, 4 and 6 hours after administration of intravaginal suppository), and the calcium level in the serum thereof was determined (n=3).
# [4] = test system: calcium level in the serum; assay: Experiment 7: effects of pH of the solution in the suppository on serum calcium reduction; conditions: for Reduction rate (%) of calcium level in the serum: citric acid + S-970, intravaginal 20 μg, rats
# Experimental: as §1, §2, §3
substance,measurement,setting,value
Human calcitonin,Reduction rate (%) of calcium level in the serum,"[1]; Ryoto-Sugar Ester L-595 + L-1695 3:2, HLB 9, lauric acid, + citric acid, 2 hr",11.0%
same,Reduction rate (%) of calcium level in the serum,"[1]; Ryoto-Sugar Ester L-595 + L-1695 3:2, HLB 9, lauric acid, + citric acid, 4 hr",14.4%
same,Reduction rate (%) of calcium level in the serum,"[1]; Ryoto-Sugar Ester L-595 + L-1695 3:2, HLB 9, lauric acid, + citric acid, 6 hr",9.7%
same,Reduction rate (%) of calcium level in the serum,"[1]; Ryoto-Sugar Ester P-070 + P-1670 4:5, HLB 9, palmitic acid, + citric acid, 2 hr",8.2%
same,Reduction rate (%) of calcium level in the serum,"[1]; Ryoto-Sugar Ester P-070 + P-1670 4:5, HLB 9, palmitic acid, + citric acid, 4 hr",17.3%
same,Reduction rate (%) of calcium level in the serum,"[1]; Ryoto-Sugar Ester P-070 + P-1670 4:5, HLB 9, palmitic acid, + citric acid, 6 hr",13.8%
same,Reduction rate (%) of calcium level in the serum,"[1]; Ryoto-Sugar Ester S-370 + S-1670 5:6, HLB 9, stearic acid, + citric acid, 2 hr",6.9%
same,Reduction rate (%) of calcium level in the serum,"[1]; Ryoto-Sugar Ester S-370 + S-1670 5:6, HLB 9, stearic acid, + citric acid, 4 hr",15.3%
same,Reduction rate (%) of calcium level in the serum,"[1]; Ryoto-Sugar Ester S-370 + S-1670 5:6, HLB 9, stearic acid, + citric acid, 6 hr",12.3%
same,Reduction rate (%) of calcium level in the serum,"[1]; Ryoto-Sugar Ester S-970 1:0 (control of Table B), HLB 9, stearic acid, + citric acid (Table 4), 2 hr",6.3%
same,Reduction rate (%) of calcium level in the serum,"[1]; Ryoto-Sugar Ester S-970 1:0 (control of Table B), HLB 9, stearic acid, + citric acid (Table 4), 4 hr",11.6%
same,Reduction rate (%) of calcium level in the serum,"[1]; Ryoto-Sugar Ester S-970 1:0 (control of Table B), HLB 9, stearic acid, + citric acid (Table 4), 6 hr",11.0%
same,promotion effects on absorption of calcitonin,"[1]; combination of sucrose fatty acid ester and citric acid, esters of different HLB value and fatty acid",not affected by either the HLB value of the sucrose fatty acid ester to be used or by the kinds of the fatty acids to be combined
same,calcium level in the blood,"[2]; sucrose fatty acid ester 1, 2 or 8 w/w % with citric acid",reduced at any concentration of the sucrose fatty acid ester to be used
same,Reduction rate (%) of calcium level in the serum,"[2]; sucrose fatty acid ester (S-970) 1 w/w %, citric acid 100 mg per 5.00 g, intravaginal suppository 20 μg, rats, 2 hr",10.8%
same,calcium level in the blood,"[3]; citric acid 1, 2, 5 or 10 w/w % with sucrose fatty acid ester",reduced at any concentration of citric acid to be used
same,Reduction rate (%) of calcium level in the serum,"[3]; organic acid (citric acid) 1 w/w %, 2 hr",14.6%
same,Reduction rate (%) of calcium level in the serum,"[3]; organic acid (citric acid) 1 w/w %, 4 hr",15.7%
same,Reduction rate (%) of calcium level in the serum,"[3]; organic acid (citric acid) 1 w/w %, 6 hr",9.2%
same,Reduction rate (%) of calcium level in the serum,"[3]; organic acid (citric acid) 2 w/w %, 2 hr",15.3%
same,Reduction rate (%) of calcium level in the serum,"[3]; organic acid (citric acid) 2 w/w %, 4 hr",18.7%
same,Reduction rate (%) of calcium level in the serum,"[3]; organic acid (citric acid) 2 w/w %, 6 hr",8.2%
same,Reduction rate (%) of calcium level in the serum,"[3]; organic acid (citric acid) 5 w/w %, 2 hr",17.9%
same,Reduction rate (%) of calcium level in the serum,"[3]; organic acid (citric acid) 5 w/w %, 4 hr",19.4%
same,Reduction rate (%) of calcium level in the serum,"[3]; organic acid (citric acid) 5 w/w %, 6 hr",7.5%
same,Reduction rate (%) of calcium level in the serum,"[3]; organic acid (citric acid) 10 w/w %, 2 hr",18.4%
same,Reduction rate (%) of calcium level in the serum,"[3]; organic acid (citric acid) 10 w/w %, 4 hr",19.0%
same,Reduction rate (%) of calcium level in the serum,"[3]; organic acid (citric acid) 10 w/w %, 6 hr",5.0%
same,promotion effect of a combination of a sucrose fatty acid ester and citric acid,[4]; pH of the solution 3.0 to 5.5,"observed in the cases of pH 3.0 to 5.5, and the effects thereof were not significantly different in the cases of pH 3.0 to 4.5"
same,Reduction rate (%) of calcium level in the serum,"[4]; pH of the solution in suppository 3.0, 2 hr",11.0%
same,Reduction rate (%) of calcium level in the serum,"[4]; pH of the solution in suppository 3.0, 4 hr",22.0%
same,Reduction rate (%) of calcium level in the serum,"[4]; pH of the solution in suppository 3.0, 6 hr",8.7%
same,Reduction rate (%) of calcium level in the serum,"[4]; pH of the solution in suppository 3.5, 2 hr",9.4%
same,Reduction rate (%) of calcium level in the serum,"[4]; pH of the solution in suppository 3.5, 4 hr",19.8%
same,Reduction rate (%) of calcium level in the serum,"[4]; pH of the solution in suppository 3.5, 6 hr",8.8%
same,Reduction rate (%) of calcium level in the serum,"[4]; pH of the solution in suppository 4.0, 2 hr",9.4%
same,Reduction rate (%) of calcium level in the serum,"[4]; pH of the solution in suppository 4.0, 4 hr",20.2%
same,Reduction rate (%) of calcium level in the serum,"[4]; pH of the solution in suppository 4.0, 6 hr",10.2%
same,Reduction rate (%) of calcium level in the serum,"[4]; pH of the solution in suppository 4.5, 2 hr",9.5%
same,Reduction rate (%) of calcium level in the serum,"[4]; pH of the solution in suppository 4.5, 4 hr",22.8%
same,Reduction rate (%) of calcium level in the serum,"[4]; pH of the solution in suppository 4.5, 6 hr",9.1%
same,Reduction rate (%) of calcium level in the serum,"[4]; pH of the solution in suppository 5.0, 2 hr",10.2%
same,Reduction rate (%) of calcium level in the serum,"[4]; pH of the solution in suppository 5.0, 4 hr",11.4%
same,Reduction rate (%) of calcium level in the serum,"[4]; pH of the solution in suppository 5.0, 6 hr",2.7%
same,Reduction rate (%) of calcium level in the serum,"[4]; pH of the solution in suppository 5.5, 2 hr",8.1%
same,Reduction rate (%) of calcium level in the serum,"[4]; pH of the solution in suppository 5.5, 4 hr",13.2%
same,Reduction rate (%) of calcium level in the serum,"[4]; pH of the solution in suppository 5.5, 6 hr",4.3%

# Source: patent US5776886A, “Intravaginal preparation containing physiologically active peptide” (Teikoku Seiyaku Kabushiki Kaisha, priority 1993, dated 1998)
